Reference: PubChem BioAssay AID192 (DTP/NCI, 2004)
“And” between values parts separate entries of the source, which are not always exact repeats. Equal values may be shown once. Toxic doses and inconclusive results are not listed. Rule for the calls: active = survival T/C of 150% or more; inactive = T/C below 125% in these data. Peptide text beside a SMILES is read from it. * marks the point of attachment. Cbz = O=C(OCc1ccccc1)*

System: BDF1 mice, B16 melanoma ip, median survival T/C
Assay: NCI In Vivo Anticancer Drug Screen. Data for tumor model B16 Melanoma (intraperitoneal) in B6D2F1 (BDF1) mice
Conditions: endpoint: median survival time, higher = longer survival
Summary of the method: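 Tumor-bearing mice received test compound or vehicle. Survival or tumor size was then measured in both groups. The treated-group figure was divided by the control-group figure.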

[1] = dose: 6.25 mg/kg/injection, schedule: Q01DX009 (ip), vehicle: Klucel (hydroxypropylcellulose) (HPC)
[2] = dose: 12.5 mg/kg/injection, schedule: Q01DX009 (ip), vehicle: Klucel (hydroxypropylcellulose) (HPC)
[3] = dose: 25.0 mg/kg/injection, schedule: Q01DX009 (ip), vehicle: Klucel (hydroxypropylcellulose) (HPC)
[4] = dose: 50.0 mg/kg/injection, schedule: Q01DX009 (ip), vehicle: saline with Tween-80
[5] = dose: 100.0 mg/kg/injection, schedule: Q01DX009 (ip), vehicle: saline with Tween-80
[6] = dose: 50.0 mg/kg/injection, schedule: Q01DX009 (ip), vehicle: saline
[7] = dose: 100.0 mg/kg/injection, schedule: Q01DX009 (ip), vehicle: saline
[8] = dose: 200.0 mg/kg/injection, schedule: Q01DX009 (ip), vehicle: saline
[9] = dose: 25.0 mg/kg/injection, schedule: Q01DX009 (ip), vehicle: saline with Tween-80

Measured: T/C

Cn1ncc2c(N)ncnc21
inactive: dose: 1.25 mg/kg/injection, schedule: Q01DX009 (ip), vehicle: Klucel (hydroxypropylcellulose) (HPC) 102 % of control | dose: 2.5 mg/kg/injection, schedule: Q01DX009 (ip), vehicle: Klucel (hydroxypropylcellulose) (HPC) 111 % of control | dose: 5.0 mg/kg/injection, schedule: Q01DX009 (ip), vehicle: Klucel (hydroxypropylcellulose) (HPC) 105 % of control | dose: 10.0 mg/kg/injection, schedule: Q01DX009 (ip), vehicle: Klucel (hydroxypropylcellulose) (HPC) 119 % of control

CN(C)N=Nc1ccccc1
inactive: [1] 120 % of control | [2] 112 % of control and 123 % of control | [3] 117 % of control

O=C(NC(Cc1ccccc1)C(=O)NC(Cc1ccc(O)cc1)C(=O)O)OCc1ccccc1 (stereo not drawn) (Cbz-Phe-Tyr-OH; configuration not given here)
inactive: [4] 105 % of control | [5] 86 % of control

CC(=O)/C(N=O)=C(/C)O
inactive: [6] 110 % of control | [7] 105 % of control | [8] 97 % of control

COC(=O)C1(C(=O)OC)C=CCCC1=O
inactive: dose: 100.0 mg/kg/injection, schedule: Q01DX009 (ip), vehicle: Klucel (hydroxypropylcellulose) (HPC) 99 % of control | dose: 200.0 mg/kg/injection, schedule: Q01DX009 (ip), vehicle: Klucel (hydroxypropylcellulose) (HPC) 97 % of control

CC(N)CCC(C)(C)O (stereo not drawn)
inactive: [9] 102 % of control | [4] 105 % of control | [5] 107 % of control

CSc1nc2cc(C)c(C)cc2[nH]1
inactive: [9] 100 % of control | [4] 97 % of control | [5] 97 % of control and 102 % of control

O=C1CCNC(=O)N1OS(=O)(=O)c1ccccc1
inactive: [1] 106 % of control | [2] 100 % of control | [3] 98 % of control

O=C(CCBr)N1CCN(C(=O)CCBr)CC1
inactive: dose: 2.5 mg/kg/injection, schedule: Q01DX009 (ip), vehicle: saline with Tween-80 100 % of control | dose: 5.0 mg/kg/injection, schedule: Q01DX009 (ip), vehicle: saline with Tween-80 102 % of control | dose: 5.0 mg/kg/injection, schedule: Q01DX009 (ip), vehicle: saline 109 % of control | dose: 10.0 mg/kg/injection, schedule: Q01DX009 (ip), vehicle: saline with Tween-80 104 % of control | dose: 10.0 mg/kg/injection, schedule: Q01DX009 (ip), vehicle: saline 111 % of control and 117 % of control | dose: 20.0 mg/kg/injection, schedule: Q01DX009 (ip), vehicle: saline with Tween-80 116 % of control | dose: 20.0 mg/kg/injection, schedule: Q01DX009 (ip), vehicle: saline 119 % of control | dose: 40.0 mg/kg/injection, schedule: Q01DX009 (ip), vehicle: saline with Tween-80 122 % of control

C(COCCOCC1CO1)OCCOCC1CO1 (stereo not drawn)
inactive: dose: 12.5 mg/kg/injection, schedule: Q01DX009 (ip), vehicle: saline with Tween-80 101 % of control | [9] 105 % of control | [4] 103 % of control | [6] 107 % of control | [5] 109 % of control | [7] 108 % of control and 110 % of control | dose: 200.0 mg/kg/injection, schedule: Q01DX009 (ip), vehicle: saline with Tween-80 99 % of control | [8] 86 % of control

Cc1c(CNc2ccc(C(=O)NC(CC(=O)O)CC(=O)O)cc2)ccc2nc(N)nc(N)c12
inactive: dose: 0.05 mg/kg/injection, schedule: Q01DX009 (ip), vehicle: saline 111 % of control | dose: 0.1 mg/kg/injection, schedule: Q01DX009 (ip), vehicle: saline 111 % of control | dose: 0.12 mg/kg/injection, schedule: Q01DX009 (ip), vehicle: saline with Tween-80 102 % of control | dose: 0.2 mg/kg/injection, schedule: Q01DX009 (ip), vehicle: saline 116 % of control | dose: 0.25 mg/kg/injection, schedule: Q01DX009 (ip), vehicle: saline with Tween-80 91 % of control | dose: 0.37 mg/kg/injection, schedule: Q01DX009 (ip), vehicle: saline 100 % of control

O=[N+]([O-])c1ccc(/C=N\Nc2ccc([N+](=O)[O-])cn2)cc1
inactive: dose: 0.78 mg/kg/injection, schedule: Q01DX009 (ip), vehicle: Klucel (hydroxypropylcellulose) (HPC) 106 % of control | dose: 1.56 mg/kg/injection, schedule: Q01DX009 (ip), vehicle: Klucel (hydroxypropylcellulose) (HPC) 97 % of control | dose: 3.12 mg/kg/injection, schedule: Q01DX009 (ip), vehicle: Klucel (hydroxypropylcellulose) (HPC) 86 % of control | [1] 97 % of control | [2] 86 % of control

Cc1cccc(NC(=O)Nc2cccc(Cl)c2)c1C
inactive: dose: 100.0 mg/kg/injection, schedule: Q04DX003 (ip), vehicle: Klucel (hydroxypropylcellulose) (HPC) 107 % of control | dose: 200.0 mg/kg/injection, schedule: Q04DX003 (ip), vehicle: Klucel (hydroxypropylcellulose) (HPC) 100 % of control | dose: 400.0 mg/kg/injection, schedule: Q04DX003 (ip), vehicle: Klucel (hydroxypropylcellulose) (HPC) 103 % of control
